Assay: excess molar enthalpy (molar enthalpy of mixing); xn = mol fraction of the nth substance listed
Details: 101 kPa, Liquid, Calvet calorimetry

[Li] [lithium] + [Ag]
Details	excess molar enthalpy [kJ/mol]
873 K, x1 = 0.5664	-11.7
873 K, x1 = 0.5985	-11.3
873 K, x1 = 0.6338	-10.7
873 K, x1 = 0.6719	-10
873 K, x1 = 0.7007	-9.39
873 K, x1 = 0.7274	-8.73
873 K, x1 = 0.7617	-7.81
873 K, x1 = 0.7867	-7.1
873 K, x1 = 0.8408	-5.09
873 K, x1 = 0.8972	-3.21
873 K, x1 = 0.932	-1.98
873 K, x1 = 0.9771	-0.34
1253 K, x1 = 0.1002	-3.06
1253 K, x1 = 0.1043	-3.16
1253 K, x1 = 0.1097	-3.34
1253 K, x1 = 0.1152	-3.57
1253 K, x1 = 0.1205	-3.75
1253 K, x1 = 0.1287	-4
1253 K, x1 = 0.1355	-4.23
1253 K, x1 = 0.1461	-4.62
1253 K, x1 = 0.1583	-5.05
1253 K, x1 = 0.1698	-5.67
1253 K, x1 = 0.1884	-6.33
1253 K, x1 = 0.1995	-6.68
1253 K, x1 = 0.2187	-7.22
1253 K, x1 = 0.264	-7.75
1253 K, x1 = 0.2711	-7.85
1253 K, x1 = 0.2851	-8.15
1253 K, x1 = 0.2976	-8.47
1253 K, x1 = 0.3124	-8.86
1253 K, x1 = 0.3281	-9.2
1253 K, x1 = 0.3503	-9.57
1253 K, x1 = 0.3774	-10.1
1253 K, x1 = 0.4086	-10.6
1253 K, x1 = 0.4371	-10.9
1253 K, x1 = 0.4847	-11.4
1253 K, x1 = 0.5245	-11.5
